Results from patent US9113629B2, “4-amino-6-(4-substituted-phenyl)-picolinates and 6-amino-2-(4-substituted-phenyl)-pyrimidine-4-carboxylates and their use as herbicides” (DOW AGROSCIENCES LLC, priority 2013, dated 2015).
Read-outs that look alike come from different tables or passages of the source.

What was measured:
[1] = test system: Key Broadleaf Weed and Crop Species; test: Post-emergent Test II herbicidal activity (Table 5); type: in vivo; details: post-emergence, 336 h, post-emergent, 14 days after application; for pest or weed control at 70 g/ha: 70 g ai/ha; for pest or weed control at 140 g/ha: 140 g ai/ha
Outline: (§1)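 Injury was rated visually 14 d after treatment on a 0–100% scale against untreated controls. Test compounds, formulated with crop oil concentrate and surfactant and serially diluted down to 1/16× of the top rate, were applied by track sprayer at 187 L/ha onto first- to second-true-leaf seedlings.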

[2] = test system: Key Grass and Sedge Weeds as well as Grass Crops; test: Post-emergent Test II herbicidal activity (Table 6); type: in vivo; details: post-emergence, 336 h; for pest or weed control at 70 g/ha: application rate 70 g ai/ha; for pest or weed control at 140 g/ha: application rate 140 g ai/ha
Outline: as §1

[3] = ABUTH: velvetleaf (Abutilon theophrasti), read-out: Visual Growth Reduction (%) 14 Days After Application ABUTH
[4] = AMARE: redroot pigweed (Amaranthus retroflexus), read-out: Visual Growth Reduction (%) 14 Days After Application AMARE
[5] = BRSNN: oilseed-rape, canola (Brassica napus), read-out: Visual Growth Reduction (%) 14 Days After Application BRSNN
[6] = CHEAL: lambsquarters (Chenopodium album), read-out: Visual Growth Reduction (%) 14 Days After Application CHEAL
[7] = EPHHL: wild poinsettia (Euphorbia heterophylla), read-out: Visual Growth Reduction (%) 14 Days After Application EPHHL
[8] = HELAN: sunflower (Helianthus annuus), read-out: Visual Growth Reduction (%) 14 Days After Application HELAN
[9] = VIOTR: wild pansy (Viola tricolor), read-out: Visual Growth Reduction (%) 14 Days After Application VIOTR
[10] = CYPES: yellow nutsedge (Cyperus esculentus), read-out: Visual Growth Reduction (%) 14 Days After Application, CYPES
[11] = DIGSA: crabgrass (Digitaria sanguinalis), read-out: Visual Growth Reduction (%) 14 Days After Application, DIGSA
[12] = ECHCG: barnyardgrass (Echinochloa crus-galli), read-out: Visual Growth Reduction (%) 14 Days After Application, ECHCG
[13] = ORYSA: rice (Oryza sativa), read-out: Visual Growth Reduction (%) 14 Days After Application, ORYSA
[14] = SETFA: giant foxtail (Setaria faberi), read-out: Visual Growth Reduction (%) 14 Days After Application, SETFA
[15] = SORVU: grain sorghum (Sorghum vulgare), read-out: Visual Growth Reduction (%) 14 Days After Application, SORVU
[16] = TRZSS (wheat, Triticum aestivum), read-out: Visual Growth Reduction (%) 14 Days After Application, TRZSS
[17] = ZEAMX: maize, corn (Zea mays), read-out: Visual Growth Reduction (%) 14 Days After Application, ZEAMX

SMILES	pest or weed control at 70 g/ha [1, 3] [%]	pest or weed control at 140 g/ha [1, 3] [%]	pest or weed control at 70 g/ha [1, 4] [%]	pest or weed control at 140 g/ha [1, 4] [%]	pest or weed control at 70 g/ha [1, 5] [%]	pest or weed control at 140 g/ha [1, 5] [%]	pest or weed control at 70 g/ha [1, 6] [%]	pest or weed control at 140 g/ha [1, 6] [%]	pest or weed control at 70 g/ha [1, 7] [%]	pest or weed control at 140 g/ha [1, 7] [%]	pest or weed control at 70 g/ha [1, 8] [%]	pest or weed control at 140 g/ha [1, 8] [%]	pest or weed control at 70 g/ha [1, 9] [%]	pest or weed control at 140 g/ha [1, 9] [%]	pest or weed control at 70 g/ha [2, 10] [%]	pest or weed control at 140 g/ha [2, 10] [%]	pest or weed control at 70 g/ha [2, 11] [%]	pest or weed control at 140 g/ha [2, 11] [%]	pest or weed control at 70 g/ha [2, 12] [%]	pest or weed control at 140 g/ha [2, 12] [%]	other results
COC(=O)c1nc(-c2cc(F)c(C(F)(F)F)cc2F)c(F)c(N)c1Cl [Compound 144]	85 to 94	95 to 100	95 to 100	95 to 100	85 to 94	95 to 100	85 to 94	95 to 100	75 to 84	85 to 94	85 to 94	95 to 100	75 to 84	85 to 94	85 to 94	95 to 100	60 to 74	75 to 84	45 to 59	75 to 84	pest or weed control at 70 g/ha [2, 13]: 0 to 29%; pest or weed control at 140 g/ha [2, 13]: 0 to 29%; pest or weed control at 70 g/ha [2, 14]: 60 to 74%; pest or weed control at 140 g/ha [2, 14]: 75 to 84%; pest or weed control at 70 g/ha [2, 15]: 75 to 84%; pest or weed control at 140 g/ha [2, 15]: 85 to 94%; pest or weed control at 70 g/ha [2, 16]: 60 to 74%; pest or weed control at 140 g/ha [2, 16]: 75 to 84%; pest or weed control at 70 g/ha [2, 17]: 60 to 74%; pest or weed control at 140 g/ha [2, 17]: 75 to 84%; melting point: 124 to 126 °C
COC(=O)c1nc(-c2cc(F)c(C(F)(F)F)cc2F)nc(N)c1OC [Compound 148, methyl 6-amino-2-(2,5-difluoro-4-(trifluoromethyl)phenyl)-5-methoxypyrimidine-4-carboxylate]	75 to 84	75 to 84	0 to 29	0 to 29	45 to 59	60 to 74	85 to 94	95 to 100	85 to 94	75 to 84	45 to 59	60 to 74	45 to 59	60 to 74	60 to 74	75 to 84	0 to 29	0 to 29	0 to 29	0 to 29	pest or weed control at 70 g/ha [2, 13]: 0 to 29%; pest or weed control at 140 g/ha [2, 13]: 30 to 44%; pest or weed control at 70 g/ha [2, 14]: 0 to 29%; pest or weed control at 140 g/ha [2, 14]: 0 to 29%; pest or weed control at 70 g/ha [2, 15]: 0 to 29%; pest or weed control at 140 g/ha [2, 15]: 0 to 29%; pest or weed control at 70 g/ha [2, 16]: 30 to 44%; pest or weed control at 140 g/ha [2, 16]: 60 to 74%; pest or weed control at 70 g/ha [2, 17]: 0 to 29%; pest or weed control at 140 g/ha [2, 17]: 30 to 44%; melting point: 96 to 98 °C
